Measurements as given in article PMC4381330, “Identification of a novel selective agonist of PPARγ with no promotion of adipogenesis and less inhibition of osteoblastogenesis” (Scientific Reports, 2015).

Legend:
3T3-L1 preadipocytes = assay: Adipogenic differentiation of 3T3-L1 preadipocytes (Oil red O, triglyceride content); type: cell-based, mouse
Description: (§1) 3T3-L1 preadipocytes were grown to confluency in DMEM containing 10% CS. At 2 days post-confluency, the cells were stimulated with differentiation medium (DMEM containing 10% FBS, 10 μg/mL insulin, 1 μM dexamethasone, and 0.5 mM IBMX) for 48 h. Then, the cells were exposed in post-differentiation-maintaining medium (DMEM containing 10% FBS and 10 μg/mL insulin) for a further 48 h, which was replaced with expansion medium (DMEM containing 10% FBS) every 2 days after then. Compounds were added to the post-differentiation and expansion medium. At day 4, the cells were harvested for RNA preparation. At Day 8, the cells were fixed with 10% formaldehyde and stained with Oil red O solution. After washing with water, photos were taken. Solubilized dye was quantified at 550 nm. In addition, total triglyceride of the cells was measured by a total TG measurement kit (Applygene, China). Experiments were performed at least three times.

[1] = system: PPARγ target genes in differentiating 3T3-L1 cells; assay: Expression of adipogenesis-related and PPARγ-responsive genes in differentiating 3T3-L1 adipocytes (qPCR); type: cell-based, mouse
Description: as §1
(§2) Total RNA was extracted using TRIzol reagent (Invitrogen). First-strand cDNA was synthesized from the total RNA using a reverse transcriptional kit (TransGen). Quantitative PCR with SYBR Green (Roche Diagnostics, Lewes, UK) was performed on a Stratagene MX3000P real-time PCR system (Agilent). Melting curves were obtained, and the specificity of PCR products was checked on agarose gels. Relative mRNA expression was determined by the ΔΔCt method and normalized to GAPDH mRNA levels.

MC3T3-E1 preosteoblasts = assay: Osteoblastic differentiation of MC3T3-E1 cells (Alizarin red S, Alp activity); type: cell-based; conditions: F12016 1, 10, 30 μM
Description: (§3) MC3T3-E1 cells were cultured in α-MEM to confluency in 24-well plates and then cultured in differentiation medium (α-MEM supplemented with 200 μM ascorbic acid and 10 mM β-glycerophosphate) for 7, 14, and 21 days, which was replaced every 3 days. The cells were treated with DMSO, rosiglitazone, or F12016 at the start of differentiation. At day 8, 15 and 22, total RNA was isolated, and real-time PCR was performed as described below.
Mature osteoblasts were stained with Alizarin red S and Alp activity were measured at day 22. In brief, cells were fixed with 75% ethanol and stained with 40 mM Alizarin red S solution (pH 4.1–4.3) for 10 min. For Alp assay, the cells were harvested and sonicated on ice with two 30s-pulses. Supernatant of lysate was incubated with isopyknic 1.0 mg/ml pNPP (Sigma–aldrich) solution (1 M diethanolamine buffer, 0.5 mM magnesium chloride) for 30 min at 37°C. The reaction was measured at 405 nm. Relative ALP activity was normalized to the protein concentration.

[2] = system: osteoblast marker genes in MC3T3-E1 cells; assay: Expression of osteoblast marker genes in MC3T3-E1 cells (qPCR); type: cell-based
Description: as §3, §2

PPARγ LBD mutants = type: cell-based, human; conditions: compared with wild-type PPARγ LBD
Description: All chemicals were purchased from Sigma-Aldrich (St. Louis, MO, USA). All medium and serum were obtained from Gibco (Invitrogen). […] Mutations in pBIND-PPARγ-LBD were created by site-directed mutagenesis using the Fast Mutagenesis System (TransGen Biotech, Beijing, China).
The determination of nuclear receptor activation was performed as previously. Briefly, HEK293T cells were transfected with GAL4-pGL4-luc reporter plasmid and pBIND-PPARγ-LBD expression plasmid using Lipofectamine 2000 (Invitrogen) for 6 h before treatment with compounds for 20–24 h. Activity was determined by the Luciferase Assay System (Promega).

[3] = system: osteoblast marker genes in MC3T3-E1 cells; parameters: method as in PMID 21892191; conditions: rosiglitazone 10 μM; cited from earlier work
diabetic KKAy mice = assay: Diabetic KKAy mice, 21 days treatment (fasting blood glucose, OGTT, ITT, body weight); conditions: after 21 days, F12016 75 mg/kg, rosiglitazone 5 mg/kg
Description: Fasting blood glucose was measured with Onetoch Ultra Teststrip (Johnson & Johnson) at day 0, 3, 7, 14, 21, and body weight were monitored during these days.
After 14 days of treatment, oral glucose tolerance test (OGTT) was performed. Mice were fasted for 6 h with free access to water. 2 g/kg of glucose was given by gavage and blood glucose was measured at 0, 30, 60, 90, and 120 min.
After 21 days of feeding, insulin tolerance test (ITT) was carried out. Mice were fasted for 4 h before being injected 1 U/kg of recombinant human insulin (Novo Nordisk) subcutaneously, and blood glucose was measured at 0, 40, 90, and 120 min after insulin injection.

In the case of `O=C(Nc1ccccc1)c1cc([N+](=O)[O-])ccc1Cl` [GW9662, reference compound], the “effect of co-incubation on rosiglitazone-induced adipogenesis” value (3T3-L1 preadipocytes; GW9662 20 μM plus RGZ 10 μM) is reported as “weakened”.
In the case of `CN(CCOc1ccc(CC2SC(=O)NC2=O)cc1)c1ccccn1` (centres unmarked) [rosiglitazone, reference compound], the “intracellular triglyceride (TG) content” value (3T3-L1 preadipocytes; 6 days of stimulation) is reported as “significant increase”, the “lipid accumulation / intracellular lipid droplets (Oil red O staining)” value (3T3-L1 preadipocytes; RGZ 0.1, 1, 10 μM, F12016 1, 10, 30 μM) is reported as “significant increase in Oil red O staining” and the “mRNA levels of 11β-HSD1” value [1] is reported as “similarly decreased the mRNA levels”. The “expression of fatty acid synthase (Fasn)” value ([1]; both compounds to a similar extent) was “upregulated expression”, the “alkaline phosphatase (Alp) activity” value (MC3T3-E1 preosteoblasts) was “significantly reduced alkaline phosphatase (Alp) activity” and the “mineralization (Alizarin Red S)” value (MC3T3-E1 preosteoblasts) was “impaired calcification of bone cells”. For the same molecule, the “expression of Alp and Col1” value ([2]; 7 days) was “reduced expressions”, the “expression of RANKL” value ([2]; 7 days, rosiglitazone 1 μM, compared with control) was “not significantly changed” and the “expression of Ibsp and Bglap” value ([2]; Ibsp 14 days, Bglap 21 days) was “reduced expressions”. For the same molecule, the “activation of S289A, H323A, H449A and Y473A mutants” value (PPARγ LBD mutants) was “nearly abolished”, the “expression of RANKL in differentiated MC3T3-E1 cells” value [3] was “reduced expression of RANKL” and the “blood glucose after insulin injection (ITT)” value (diabetic KKAy mice; insulin 1 IU/kg) was “significantly reduced blood glucose”. The average body weight (diabetic KKAy mice; vs vehicle) was “showed weight gain in a certain extent”.
